These molecules were tested against T1, 5-HT1D receptor (Homo sapiens, UniProt P28221) (assay: 5-HT1D receptor binding, inhibition of 3H-serotonin binding). Details: 100 nM test compound; 3H-serotonin 1 nM; membranes from recombinant cells; 60 minute incubation at 22° C.; read-out: percent inhibition of binding of the radio ligand at the 5-HT1D receptor.
T1 construct: expressed in transfected cells
Method: Selected compounds of the previous examples, as well as reference compounds, were evaluated for binding affinity using cell types receptive specifically to 5-HT1D and 5-HT1B ligands. The assay protocol generally entailed the incubation of membranes prepared from cells expressing the 5-HT1D or 5-HT1B subtype of 5-HT receptors with ^3H-serotonin (1 nM for 5-HT1D and 2.5 nM for 5-HT1B). Specific concentrations of the test compound were incubated with the radio ligand and the membrane homogenates prepared from the recombinant cells. After a 60 minute incubation at 22° C., the incubation was terminated by vacuum filtration. The filters were washed with buffer and counted for radioactivity using liquid scintillation spectroscopy. The affinity of the test compound for the 5-HT1D receptor is expressed as the amount (in percent) of binding of the radio ligand that is inhibited in the presence of 100 nM of test compound. A greater percent inhibition indicates greater affinity for the 5-HT1D receptor.

T1 sequence (P28221 whole entry): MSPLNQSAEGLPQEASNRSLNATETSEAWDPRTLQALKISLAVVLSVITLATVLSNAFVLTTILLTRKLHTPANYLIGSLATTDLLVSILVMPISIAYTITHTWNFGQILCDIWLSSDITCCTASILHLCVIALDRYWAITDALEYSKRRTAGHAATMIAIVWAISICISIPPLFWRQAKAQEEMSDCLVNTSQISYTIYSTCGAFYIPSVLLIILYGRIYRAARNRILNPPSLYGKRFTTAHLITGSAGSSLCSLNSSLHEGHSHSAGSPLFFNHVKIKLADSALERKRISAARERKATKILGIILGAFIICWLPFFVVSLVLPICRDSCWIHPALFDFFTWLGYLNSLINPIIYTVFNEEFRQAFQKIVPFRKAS

| Structure (SMILES) | inhibition at 0.1 µM [%] |
| --- | --- |
| CC(C)n1ccc2ccc(CCN(C)C)cc21 [Example 2, 6-(2-(N,N-Dimethylamino)ethyl)-1-isopropyl-indole] | > 90 |
| Brc1ccc2ccn(C3CCNCC3)c2c1 [Example 10c, 6-Bromo-1-(4-piperidinyl)-indole] | > 50 |
| CN(C)CCc1ccc2ccn(C3CCOCC3)c2c1 [Example 11b, 6-(2-Dimethylaminoethyl)-1-(tetrahydropyran4-yl)-indole] | > 90 |
| CC(C)n1ncc2ccc(CCN(C)C)cc21 [Example 14, 6-(2-(N,N-Dimethylamino)ethyl)-1-isopropyl-1H-indazole] | > 90 |
| CC(C)n1ccc2ccc(C3=CCN(C)CC3)cc21 [Example 16c, 6-[N-Methyl-1,2,5,6-tetrahydropyridin-4-yl]-1-isopropyl-indole] | > 50 |
| CN1CC=C(c2ccc3ccn(-c4ccc(F)cc4)c3c2)CC1 [Example 19, 1-(4-Fluorophenyl)-6-(N-methyl-1,2,5,6-tetrahydropyridin-4-yl)-indole] | > 75 |
| CN1CC=C(c2ccc3ccn(-c4ccsc4)c3c2)CC1 [Example 19c, 6-(N-Methyl-1,2,5,6-tetrahydropyridin-4-yl)-1-(3-thienyl)-indole] | > 75 |
| CN1CC=C(c2ccc3ccn(-c4cccnc4)c3c2)CC1 [Example 19d, 6-(N-Methyl-1,2,5,6-tetrahydropyridin-4-yl)-1-(3-pyridyl)-indole] | > 75 |
| CN(C)CCc1ccc2ccn(-c3cccnc3)c2c1 [Example 19f, 6-(2-Dimethylaminoethyl)-1-(3-pyridinyl)-indole] | > 90 |
| CN1CC=C(c2ccc3ccn(-c4nccs4)c3c2)CC1 [Example 19i, 6-(N-Methyl-1,2,5,6-tetrahydropyridin-4-yl)-1-(2-thiazolyl)-indole] | > 50 |

What follows are molecules tested against T1, 5-HT1D receptor (assay: Functional assay: inhibition of forskolin-stimulated adenyl cyclase (cAMP) in CHO cells). Details: CHO cells stably expressing the 5-HT1D receptor; test compound at 100 nM and 10 μM.
Type: cell-based
Method: The 5HT1D and 5HT1B receptor subtypes respond to serotonin and other agonists by reducing adenyl cyclase mediated production of cyclic AMP. Particular test compounds were assayed for their ability to inhibit adenyl cyclase activity using the procedure described below. Forskolin was used to elevate the basal adenyl cyclase activity.
Compounds acting as antagonists at the 5HT1D and 5HT1B receptor subtypes will antagonize the agonist effect of serotonin and thus, will block the serotonin-induced inhibition of forskolin-stimulated adenyl cyclase activity. […]
The culture media of each well was removed, and the wells were washed once with serum free media. […] Basal adenyl cyclase activity was determined from wells with only SFM+IBMX media added.
The cells were then incubated at 37° C. for 30 minutes in a CO2 incubator. […] The pellets were discarded and the supernatants were stored at 4° C. until assayed for cAMP concentration. cAMP content for each extract was determined in duplicate by EIA (enzyme-immunoassay) using the Amersham Biotrak cAMP EIA kit (Amersham RPN 225).
Total inhibition (Io) of forskolin-stimulated adenyl cyclase activity by serotonin was determined as the difference in concentration of cAMP in the forskolin-treated cells (Cf) and serotonin-forskolin treated cells (Cd). […]

| Structure (SMILES) | effect on forskolin stimulated production of cAMP (agonist activity) |
| --- | --- |
| CC(C)n1ccc2ccc(CCN(C)C)cc21 [Example 2, 6-(2-(N,N-Dimethylamino)ethyl)-1-isopropyl-indole] | caused a decrease in the forskolin stimulated production of cAMP |
